We go through 26 molecules from US20230250060A1 (IFM Due, Inc., priority 2022, published 2023).

This assay has as its target T1, STING (Homo sapiens, UniProt Q86WV6, G230A/H232R/R293Q/R71H).
T1 construct: host or cells: THP1-Dual KO-IFNAR2 cells
Kind of assay: STING reporter assay (luciferase) in THP1-Dual KO-IFNAR2 cells stimulated with 2′3′cGAMP. The assay is classed as cell-based. Particulars: 2′3′cGAMP 15 μM final, 24 h, luciferase reporter activity, read-out: Pharmaron, THP1_IFNAR2 STING 24 h Luci Normalized: GeoMean EC50. On the procedure: STING pathway activation by the compounds described herein was measured using TTIP1-Dual™ cells (KO-IFNAR2).
TTIP1-Dual™ KO-IFNAR2 Cells (obtained from invivogen) were maintained in RPMI, 10% FCS, 5 ml P/S, 2 mM L-glut, 10 mM Hepes, and 1 mM sodium pyruvate. Compounds were spotted in empty 384 well tissue culture plates (Greiner 781182) by Echo for a final concentration of 0.0017-100 μM. Cells were plated into the TC plates at 40 μL per well, 2×10E6 cells/mL. For activation with STING ligand, 2′3′cGAMP (MW 718.38, obtained from Invivogen), was prepared in Optimem media.
The following solutions were prepared for each 1×384 plate: • Solution A: 2 mL Optimem with one of the following stimuli: • […] • Solution B: 2 mL Optimem with […] Lipofectamine 2000→Incubate 5 min at RT
2 mL of solution A and 2 ml Solution B was mixed and incubated for 20 min at room temperature (RT). 20 μL of transfection solution (A+B) was added on top of the plated cells, with a final 2′3′cGAMP concentration of 15 μM. The plates were then centrifuged immediately at 340 g for 1 minute, after which they were incubated at 37° C., 5% CO2, >98% humidity for 24 h. Luciferase reporter activity was then measured. EC50 values were calculated by using standard methods known in the art.
Luciferase reporter assay: 10 μL of supernatant from the assay was transferred to white 384-plate with flat bottom and squared wells. One pouch of QUANTI-Luc™ Plus was dissolved in 25 mL of water. 100 μL of QLC Stabilizer per 25 mL of QUANTI-Luc™ Plus solution was added. 50 μL of QUANTI-Luc™ Plus/QLC solution per well was then added. Luminescence was measured on a Platereader (e.g., Spectramax I3X (Molecular Devices GF3637001)).
Luciferase reporter activity was then measured. EC50 values were calculated by using standard methods known in the art.

Molecules are shown by their SMILES.

T1 sequence (Q86WV6 whole entry R71H/G230A/H232R/R293Q): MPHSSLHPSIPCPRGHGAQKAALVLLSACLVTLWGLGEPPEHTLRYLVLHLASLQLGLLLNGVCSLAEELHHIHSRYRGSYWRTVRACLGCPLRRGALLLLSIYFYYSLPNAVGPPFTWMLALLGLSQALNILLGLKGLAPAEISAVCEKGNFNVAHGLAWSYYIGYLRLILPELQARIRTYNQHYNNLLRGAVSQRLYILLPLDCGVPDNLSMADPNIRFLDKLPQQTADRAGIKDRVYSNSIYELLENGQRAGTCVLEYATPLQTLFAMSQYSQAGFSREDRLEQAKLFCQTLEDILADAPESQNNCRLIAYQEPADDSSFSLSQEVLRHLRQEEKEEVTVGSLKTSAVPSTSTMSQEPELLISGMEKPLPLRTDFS

One may read the EC50 as the concentration at which the effect is half-maximal. For the molecule `O=C(Nc1c[nH]c2ccc(COCc3ccc(C(F)(F)F)cc3)cc12)C12CC(c3ccccc3)(C1)C2` [Compound 130, 3-phenyl-N-(5-(((4-(trifluoromethyl)benzyl)oxy)methyl)-1H-indol-3-yl)bicyclo[1.1.1]pentane-1-carboxamide], the EC50 is 40 to 200 nM.
Under `O=C(Nc1c[nH]c2ccc(OCCc3ccc(C(F)(F)F)cc3)cc12)C12CC(C1)C2` [Compound 131, N-(5-(4-(trifluoromethyl)phenethoxy)-1H-indol-3-yl)bicyclo[1.1.1]pentane-1-carboxamide] stands 200 to 1000 nM.
Take `O=C(Nc1c[nH]c2ccc(O[C@H]3C[C@@H](c4ccc(C(F)(F)F)cc4)C3)cc12)C12CC(F)(C1)C2` [Compound 132, 3-fluoro-N-(5-((1s,3s)-3-(4-(trifluoromethyl)phenyl)cyclobutoxy)-1H-indol-3-yl)bicyclo[1.1.1]pentane-1-carboxamide]: the EC50 fell in the range of 200 to 1000 nM.
Under `O=C(Nc1c[nH]c2ccc(O[C@H]3C[C@H](c4ccc(C(F)(F)F)cc4)C3)cc12)C12CC(F)(C1)C2` [Compound 133, 3-fluoro-N-(5-((1r,3r)-3-(4-(trifluoromethyl)phenyl)cyclobutoxy)-1H-indol-3-yl)bicyclo[1.1.1]pentane-1-carboxamide] stands 40 to 200 nM; under `O=C(Nc1c[nH]c2ccc(COCc3ccc(C(F)(F)F)cc3)cc12)C12CC(F)(C1)C2` [Compound 134, 3-fluoro-N-(5-(((4-(trifluoromethyl)benzyl)oxy)methyl)-1H-indol-3-yl)bicyclo[1.1.1]pentane-1-carboxamide], 200 to 1000 nM; under `O=C(Nc1c[nH]c2ccc(CCOc3ccc(C(F)(F)F)cc3)cc12)C12CC(C1)C2` [Compound 135], 200 to 1000 nM.
Consider `Cn1ccnc1C(=O)Nc1c[nH]c2ccc(OCc3ccc(C(F)(F)F)cc3)cc12` [Compound 136, 1-methyl-N-(5-((4-(trifluoromethyl)benzyl)oxy)-1H-indol-3-yl)-1H-imidazole-2-carboxamide], for which the EC50 is 200 to 1000 nM.
Under `O=C(Nc1c[nH]c2ccc(OCc3ccc(C(F)(F)F)cc3)cc12)c1ccn[nH]1` [Compound 137, N-(5-((4-(trifluoromethyl)benzyl)oxy)-1H-indol-3-yl)-1H-pyrazole-5-carboxamide] stands 200 to 1000 nM.
To `O=C(Nc1c[nH]c2ccc(OCc3ccc(C(F)(F)F)cc3)cc12)C12CC(F)(C1)C2` [Compound 138, 3-fluoro-N-(5-((4-(trifluoromethyl)benzyl)oxy)-1H-indol-3-yl)bicyclo[1.1.1]pentane-1-carboxamide] belongs 200 to 1000 nM.
To `Cn1ccnc1C(=O)Nc1c[nH]c2ccc(O[C@H]3C[C@@H](c4ccc(C(F)(F)F)cc4)C3)cc12` [Compound 139, 1-methyl-N-(5-((1s,3s)-3-(4-(trifluoromethyl)phenyl)cyclobutoxy)-1H-indol-3-yl)-1H-imidazole-2-carboxamide] belongs 200 to 1000 nM; to `Cn1ccnc1C(=O)Nc1c[nH]c2ccc(OCC[C@@H]3C[C@@H]4CN(CC(F)(F)F)C[C@@H]4C3)cc12` [Compound 140, 1-methyl-N-(5-(2-((3aR,5r,6aS)-2-(2,2,2-trifluoroethyl)octahydrocyclopenta[c]pyrrol-5-yl)ethoxy)-1H-indol-3-yl)-1H-imidazole-2-carboxamide], 200 to 1000 nM.
With `O=C(Nc1c[nH]c2ccc(OCc3ccc(C(F)(F)F)cc3)cc12)c1nccs1` [Compound 141, N-(5-((4-(trifluoromethyl)benzyl)oxy)-1H-indol-3-yl)thiazole-2-carboxamide], the EC50 fell in the range of 200 to 1000 nM.
To `CC12CC(C(=O)Nc3c[nH]c4ccc(OCC[C@@H]5C[C@@H]6CN(CC(F)(F)F)C[C@@H]6C5)cc34)(C1)C2` [Compound 142, 3-methyl-N-(5-(2-((3aR,5r,6aS)-2-(2,2,2-trifluoroethyl)octahydrocyclopenta[c]pyrrol-5-yl)ethoxy)-1H-indol-3-yl)bicyclo[1.1.1]pentane-1-carboxamide] belongs 200 to 1000 nM; to `Cn1ccnc1C(=O)Nc1c[nH]c2ccc(CCOc3ccc(C(F)(F)F)cc3)cc12` [Compound 143, 1-methyl-N-(5-(2-(4-(trifluoromethyl)phenoxy)ethyl)-1H-indol-3-yl)-1H-imidazole-2-carboxamide], 40 to 200 nM.
Turning to `O=C(Nc1c[nH]c2ccc(CCOc3ccc(C(F)(F)F)cc3)cc12)C1CC2(CCC2)C1` [Compound 144, N-(5-(2-(4-(trifluoromethyl)phenoxy)ethyl)-1H-indol-3-yl)spiro[3.3]heptane-2-carboxamide], the EC50 fell in the range of 40 to 200 nM.
`O=C(Nc1c[nH]c2ccc(CCOc3ccc(C(F)(F)F)cc3)cc12)c1ncco1` [Compound 145, N-(5-(2-(4-(trifluoromethyl)phenoxy)ethyl)-1H-indol-3-yl)oxazole-2-carboxamide]: the concentration for a half-maximal effect (EC50) was 200 to 1000 nM.
Turning to `Cn1ccnc1C(=O)Nc1c[nH]c2ccc(OCCc3ccc(C(F)(F)F)cc3)cc12` [Compound 146, 1-methyl-N-(5-(4-(trifluoromethyl)phenethoxy)-1H-indol-3-yl)-1H-imidazole-2-carboxamide], the EC50 was 40 to 200 nM.
To `O=C(Nc1c[nH]c2ccc(OCc3ccc(C(F)(F)F)cc3)cc12)c1ccncc1` [Compound 147, N-(5-((4-(trifluoromethyl)benzyl)oxy)-1H-indol-3-yl)isonicotinamide] belongs 200 to 1000 nM; to `O=C(Nc1c[nH]c2ccc(OCc3ccc(C(F)(F)F)cc3)cc12)c1cccnc1` [Compound 148, N-(5-((4-(trifluoromethyl)benzyl)oxy)-1H-indol-3-yl)nicotinamide], 200 to 1000 nM; to `O=C(Nc1c[nH]c2ccc(OCc3ccc(C(F)(F)F)cc3)cc12)c1ccccn1` [Compound 149, N-(5-((4-(trifluoromethyl)benzyl)oxy)-1H-indol-3-yl)picolinamide], 5000 to 100000 nM.
Take `O=C(CC1CC1)Nc1c[nH]c2ccc(OCc3ccc(C(F)(F)F)cc3)cc12` [Compound 150, 2-cyclopropyl-N-(5-((4-(trifluoromethyl)benzyl)oxy)-1H-indol-3-yl)acetamide]: the EC50 lay in the range of 200 to 1000 nM.
To `O=C(Nc1c[nH]c2ccc(OCc3ccc(C(F)(F)F)cc3)cc12)C1CC2(CCC2)C1` [Compound 151, N-(5-((4-(trifluoromethyl)benzyl)oxy)-1H-indol-3-yl)spiro[3.3]heptane-2-carboxamide] belongs 200 to 1000 nM.
As to `O=C(Nc1c[nH]c2ccc(OCc3ccc(C(F)(F)F)cc3)cc12)c1ncccc1F` [Compound 152, 3-fluoro-N-(5-((4-(trifluoromethyl)benzyl)oxy)-1H-indol-3-yl)picolinamide], the EC50 was 200 to 1000 nM.
To `Cc1noc(C)c1C(=O)Nc1c[nH]c2ccc(OCc3ccc(C(F)(F)F)cc3)cc12` [Compound 153, 3,5-dimethyl-N-(5-((4-(trifluoromethyl)benzyl)oxy)-1H-indol-3-yl)isoxazole-4-carboxamide] belongs 200 to 1000 nM; to `O=C(Nc1c[nH]c2ccc(OCc3ccc(C(F)(F)F)cc3)cc12)c1cncs1` [Compound 154, N-(5-((4-(trifluoromethyl)benzyl)oxy)-1H-indol-3-yl)thiazole-5-carboxamide], 200 to 1000 nM.
As for `O=C(Nc1c[nH]c2ccc(O[C@H]3C[C@@H](c4ccc(C(F)(F)F)cc4)C3)cc12)C1CC2(CCC2)C1` [Compound 155, N-(5-((1s,3s)-3-(4-(trifluoromethyl)phenyl)cyclobutoxy)-1H-indol-3-yl)spiro[3.3]heptane-2-carboxamide], the EC50 lay in the range of 200 to 1000 nM.
